The values below come from US12502385B2, “Analogs of deutetrabenazine, their preparation and use” (Auspex Pharmaceuticals, Inc., priority 2017, dated 2025).

Series [1] can be described thus: 90-day GLP general rat toxicology study. Here is the method: A 90-day GLP general rat toxicology study was conducted with Compound 1.
In series [2] the test system is mice. The settings on record: mouse, in vivo. Here is the method:
A 3-day GLP mouse micronucleus study was conducted with Compound 1. That study included a GLP Bacterial Reverse Mutation Assay of deutetrabenazine with Compound 1. That study also included an in vitro Chromosome Aberration Test in Cultured Human Peripheral Blood Lymphocytes. In the study, the highest level of 80 mg/kg/day of deutetrabenazine was not genotoxic in males and females. That dose level was predicted to provide 2.77 mg Compound 1/kg/day in mice, which approximates to a human equivalent dose of 0.23 mg/kg.

Where “and” joins values, the source holds several entries; their conditions need not be identical. Equal entries are not always repeated.

Regarding `[2H]C([2H])([2H])Oc1cc2c(cc1OC([2H])([2H])[2H])[C@@H]1CC(=O)[C@H](CC(C)C)CN1CC2` (racemic) [Compound 1, (RS, SR)-1,3,4,6,7,11b-hexahydro-9,10-di(methoxy-d3)-3-(2-methylpropyl)-2H-benzo[a]quinolizin-2-one], the NOAEL at 90 day in series [1] (in vivo) was 0.346 mg/kg/day and ~0.056 mg/kg. For the same compound, in series [2] (both, 3 day), the “Compound 1 dose provided at the non-genotoxic deutetrabenazine level” value is listed as 2.77 mg/kg/day and the “human equivalent dose of Compound 1 at the non-genotoxic level” value is given as around 0.23 mg/kg.
With `[2H]C([2H])([2H])Oc1cc2c(cc1OC([2H])([2H])[2H])C1CC(=O)C(CC(C)C)CN1CC2` (centres unmarked) [deutetrabenazine, d6-Tetrabenazine], the NOAEL at 90 day in series [1] (rat) is 10 mg/kg/day. In series [2] (80 mg/kg/day), the genotoxicity entry is on record as “not genotoxic”.

For orientation: NOAEL means the highest tested level that showed no adverse finding.
